Common to all, as to format: biochemical
Test [1] concerns the target T1, Xenopus laevis Aurora B/INCENP complex (Xenopus laevis, UniProt Q6DE08).
T1 construct: equipped at the N-terminal position with a GST tag (amino acids 60-361); GST (N, cleaved yes); made in house; host or cells: E. coli BL21 (DE3)
Put plainly: Aurora-B kinase assay (radioactive enzyme inhibition). From the text:
A radioactive enzyme inhibition assay was developed using E. coli-expressed recombinant Xenopus laevis Aurora B wild-type protein equipped at the N-terminal position with a GST tag (amino acids 60-361) in a complex with Xenopus laevis INCENP (amino acids 790-847), which is obtained from bacteria and purified. In equivalent manner a Xenopus laevis Aurora B mutant (G96V) in a complex with Xenopus laevis INCENP^790-847 may also be used.
The coding sequence for Aurora-B^60-361 from Xenopus laevis is cloned into a modified version of pGEX-6T (Amersham Biotech) via BamHI and SalI cutting sites. The vector contains two cloning cassettes which are separated by a ribosomal binding site, allowing bi-cistronic expression. In this configuration Xenopus laevis Aurora B is expressed by the first cassette, and the Xenopus laevis INCENP^790-847 is expressed by the second cassette. The resulting vector is pAUB-IN^847.
First of all the E. coli strain BL21 (DE3) is co-transformed with pUBS520 helper plasmid and pAUB-IN^847, after which protein expression is induced using 0.3 mM IPTG at an OD600 of 0.45-0.7. The expression is then continued for approx. 12-16 h at 23-25° C. with agitation.
The bacteria are then removed by centrifuging and the pellet is lysed in lysis buffer (50 mM Tris/Cl pH 7.6, 300 mM NaCl, 1 mM DTT, 1 mM EDTA, 5% glycerol, Roche Complete Protease Inhibitor tablets) using ultrasound, using 20-30 mL lysis buffer per litre of E. coli culture. The lysed material is freed from debris by centrifugation (12000 rpm, 45-60 min, JA20 rotor). The supernatant is incubated with […] of equilibrated GST Sepharose Fast Flow (Amersham Biosciences) per litre of E. coli culture for 4-5 h at 4° C. Then the column material is washed with 30 volumes of lysis buffer and then equilibrated with 30 volumes of cleavage buffer (50 mM Tris/Cl pH 7.6, 150 mM NaCl, 1 mM DTT, 1 mM EDTA). To cleave the GST tag from Aurora B, 10 units of Prescission Protease (Amersham Biosciences) are used per milligram of substrate and the mixture is incubated for 16 h at 4° C. The supernatant which contains the cleavage product is loaded onto a 6 mL Resource Q column (Amersham Biosciences) equilibrated with ion exchange buffer (50 mM Tris/Cl pH 7.6, 150 mM NaCl, 1 mM DTT, 1 mM EDTA). The Aurora B/INCENP complex is caught as it flows through, then concentrated and loaded onto a Superdex 200 size exclusion chromatography (SEC) column equilibrated with SEC buffer (10 mM Tris/Cl pH 7.6, 150 mM NaCl, 1 mM DTT, 1 mM EDTA). Fractions which contain the AuroraB/INCENP complex are collected and concentrated using Vivaspin concentrators (molecular weight exclusion 3000-5000 Da) to a final concentration of 12 mg/mL. Aliquots (e.g. 240 ng/μL) for kinase assays are transferred from this stock solution into freezing buffer (50 mM Tris/Cl pH 8.0, 150 mM NaCl, 0.1 mM EDTA, 0.03% Brij-35, 10% glycerol, 1 mM DTT) and stored at −80° C.
Test substances are placed in a polypropylene dish (96 wells, Greiner #655 201), in order to cover a concentration frame of 10 μM-0.0001 μM. The final concentration of DMSO in the assay is 5%. 30 μL of protein mix (50 mM Tris/Cl pH 7.5, 25 mM MgCl2, 25 mM NaCl, 167 μM ATP, 10 ng Xenopus laevis Aurora B/INCENP complex in freezing buffer) are pipetted into the 10 μl of test substance provided in 25% DMSO and this is incubated for 15 min at RT. Then 10 μL of peptide mix (100 mM Tris/Cl pH 7.5, 50 mM MgCl2, 50 mM NaCl, 5 μM NaF, 5 μM DTT, 1 μCi gamma-P33-ATP [Amersham], 50 μM substrate peptide [biotin-EPLERRLSLVPDS or multimers thereof, or biotin-EPLERRLSLVPKM or multimers thereof, or biotin-[…]]) are added. The reaction is incubated for 75 min (ambient temperature) and stopped by the addition of 180 μL of 6.4% trichloroacetic acid and incubated for 20 min on ice. […]

Test [2] deals with T2, PTK2 enzyme (Homo sapiens, UniProt Q05397).
T2 construct: purchased Invitrogen PV3832
Briefly: PTK2 enzyme test, Assay 2 (DELFIA, poly-Glu-Tyr substrate, antibody PT66). The note with it: Assay 2 (values marked *); 1 h pre-incubation, 0.5% DMSO. From the text:
This test uses active PTK2 enzyme (Invitrogen Code PV3832) and poly-Glu-Tyr (4:1, Sigma P-0275) as the kinase substrate. The kinase activity is detected by means of the phosphorylation of the substrate in a DELFIA™ assay. The phosphorylated substrate is detected with the europium-labelled phosphotyrosine antibody PT66 (Perkin Elmer, No.: AD0040).
In order to determine concentration-activity curves with PTK2-inhibitors the compounds are serially diluted first of all in 10% DMSO/H2O and then in kinase dilution buffer (20 mM TRIS/HCl pH 7.5, 0.1 mM EDTA, 0.1 mM EGTA, 0.286 mM sodium orthovanadate, 10% glycerol with the addition of freshly prepared BSA (fraction V, 1 mg/mL) and DTT (1 mM)) and 10 μL of each dilution are dispensed per well in a 96-well microtitre plate (clear U-shaped base plate, Greiner No. 650101) (the inhibitors are tested in duplicates) and mixed with 10 μL/well of PTK2 kinase (0.01 μg/well). PTK2 kinase is diluted accordingly beforehand with kinase dilution buffer. The diluted PTK2 inhibitor and the PTK2 kinase are pre-incubated for 1 h at RT and shaken at 500 revolutions per min. Then 10 μL/well poly-Glu-Tyr substrate (25 μg/well poly-Glu-Tyr, 0.05 μg/well biotinylated poly-Glu-Tyr dissolved in 250 mM TRIS/HCl pH 7.5, 9 mM DTT) are added. The reaction is started by the addition of 20 μL of ATP Mix (30 mM TRIS/HCl pH 7.5, 0.02% Brij, 0.2 mM sodium orthovanadate, 10 mM magnesium acetate, 0.1 mM EGTA, 1× phosphatase inhibitor cocktail 1 (Sigma, No.: P2850), 50 μM ATP (Sigma, No.: A3377; 15 mM stock solution))—the final concentration of DMSO is 0.5%. After 1 h kinase reaction (the plates are shaken at 500 rpm), the reaction is stopped by the addition of 12 μL/well of 100 mM EDTA, pH 8, and shaken for a further 5 min at RT (500 U/min). 55 μL of the reaction mixture are transferred into a streptavidin plate (Strepta Well High Bind (transparent, 96-well) made by Roche, No.: 11989685001) and incubated for 1 h at RT (shaking at 500 rpm). Then the microtitre plate is washed five times with 200 μL/well D-PBS (Invitrogen, No. 14190). 100 μL of a solution containing DELFIA Eu-N1 Anti-Phosphotyrosine PT66 antibody (Perkin Elmer, No.: AD0040, diluted 1:9000 in DELFIA test buffer (Perkin Elmer, No.: 1244-111)) is then added and it is incubated for 1 h at RT (shaking at 500 rpm). Then the plate is washed five times with 200 μL/well DELFIA washing buffer (Perkin Elmer, No.: 1244-114), 200 μL/well strengthening solution (Perkin Elmer, No.: 1244-105) is added and the whole is incubated for 10 min at RT (shaking at 300 rpm).
The time-delayed europium fluorescence is then measured in a microtitre plate reader (Victor, Perkin Elmer). The positive control consists of wells that contain solvent (0.5% DMSO in test buffer) and display uninhibited kinase activity. Wells that contain test buffer instead of enzyme act as a control for the background kinase activity.
The IC50 values are determined from concentration-activity analyses by iterative calculation using a sigmoid curve analysis algorithm (FIFTY, based on Graph PAD Prism Version 3.03) with a variable Hill coefficient.

The target of test [3] is T2, PTK2 enzyme. Put plainly: PTK2 enzyme test, Assay 1 (DELFIA, poly-Glu-Tyr substrate, antibody PT60). Particulars: Assay 1 (values without *); 1 h pre-incubation, 2% DMSO. The gist of the method:
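Active PTK2 (0.01 µg/well) preincubated 1 h at RT with compound (duplicates, 2% DMSO final), then reacted 1 h at RT with poly(Glu,Tyr) 4:1 plus biotinylated poly(Glu,Tyr) and an ATP mix containing 50 μM ATP. EDTA-stopped, streptavidin-captured product detected by Eu-PT60 anti-phosphotyrosine DELFIA; IC50 by variable-Hill sigmoid fit.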

By IC50 is commonly meant the concentration that inhibits the measured activity by half.

T2 sequence (Q05397 whole entry): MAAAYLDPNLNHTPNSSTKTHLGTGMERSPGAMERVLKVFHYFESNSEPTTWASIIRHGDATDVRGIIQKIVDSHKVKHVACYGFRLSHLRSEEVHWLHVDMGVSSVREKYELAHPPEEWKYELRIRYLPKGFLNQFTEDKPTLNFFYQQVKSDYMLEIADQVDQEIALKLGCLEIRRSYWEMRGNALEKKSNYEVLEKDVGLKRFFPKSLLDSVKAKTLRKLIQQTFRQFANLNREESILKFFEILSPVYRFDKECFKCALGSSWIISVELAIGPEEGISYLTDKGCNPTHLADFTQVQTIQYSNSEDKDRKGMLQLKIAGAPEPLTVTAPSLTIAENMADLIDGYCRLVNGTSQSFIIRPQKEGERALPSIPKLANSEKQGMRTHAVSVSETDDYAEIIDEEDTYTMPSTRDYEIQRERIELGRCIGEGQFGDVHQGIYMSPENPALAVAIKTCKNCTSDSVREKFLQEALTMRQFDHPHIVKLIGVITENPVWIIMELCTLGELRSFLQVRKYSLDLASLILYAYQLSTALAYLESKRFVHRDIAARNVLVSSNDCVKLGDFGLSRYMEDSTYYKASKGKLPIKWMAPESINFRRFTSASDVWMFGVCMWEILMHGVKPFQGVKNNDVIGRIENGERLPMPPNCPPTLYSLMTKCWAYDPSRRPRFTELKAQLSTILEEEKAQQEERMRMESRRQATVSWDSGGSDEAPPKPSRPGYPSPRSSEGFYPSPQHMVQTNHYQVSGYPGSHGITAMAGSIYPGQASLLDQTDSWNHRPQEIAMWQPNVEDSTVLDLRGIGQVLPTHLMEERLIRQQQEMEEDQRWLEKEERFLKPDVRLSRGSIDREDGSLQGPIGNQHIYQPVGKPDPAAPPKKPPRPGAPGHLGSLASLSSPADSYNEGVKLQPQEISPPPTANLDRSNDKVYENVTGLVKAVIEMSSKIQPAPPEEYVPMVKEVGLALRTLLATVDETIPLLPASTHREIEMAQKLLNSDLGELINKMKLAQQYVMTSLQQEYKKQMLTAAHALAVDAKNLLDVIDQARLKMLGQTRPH
T1 sequence (Q6DE08 60-361): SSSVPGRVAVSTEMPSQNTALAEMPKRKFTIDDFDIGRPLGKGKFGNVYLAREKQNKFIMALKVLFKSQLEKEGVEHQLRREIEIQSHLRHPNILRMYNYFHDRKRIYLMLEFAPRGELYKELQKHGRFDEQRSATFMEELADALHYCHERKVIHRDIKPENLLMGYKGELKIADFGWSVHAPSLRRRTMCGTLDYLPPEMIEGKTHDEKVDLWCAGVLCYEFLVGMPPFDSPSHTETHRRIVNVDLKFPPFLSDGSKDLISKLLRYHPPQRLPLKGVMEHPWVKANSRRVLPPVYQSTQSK
T1 sequence (O13024 790-847 partner): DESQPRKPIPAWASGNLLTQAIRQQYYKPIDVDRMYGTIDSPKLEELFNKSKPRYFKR

Regarding `COc1ccc(C(=O)NCCN(C)C)cc1Nc1ncc(C(F)(F)F)c(N[C@@H]2CCCC[C@H]2N(C)S(C)(=O)=O)n1` [Example I-144], the IC50 is > 9000 nM in test [1] and 0.76 nM against PTK2 enzyme [2].

For `C#CCNC(=O)c1cc(OC)c(Nc2ncc(C(F)(F)F)c(N[C@@H]3CCC[C@H]3NS(C)(=O)=O)n2)cc1C` [Example I-138], the figures for the IC50 (in test [1]; against PTK2 enzyme [2]) were 422 nM and 0.41 nM, respectively.

Take `COc1cc(C(=O)NC2CCN(C)CC2)c(F)cc1Nc1ncc(Cl)c(N[C@@H]2CCC[C@H]2N(C)S(C)(=O)=O)n1` [Example I-127, 4-{5-chloro-4-[(1R,2R)-2-(methanesulphonyl-methyl-amino)-cyclopentylamino]-pyrimidin-2-ylamino}-2-fluoro-5-methoxy-N-(1-methyl-piperidin-4-yl)-benzamide]: the IC50 turned out to be 417 nM in test [1] and 0.53 nM at PTK2 enzyme [2].

Regarding `COc1cc(C(=O)NC2CCN(C)CC2)ccc1Nc1ncc(C(F)(F)F)c(N[C@@H]2CCC[C@H]2N(C)S(C)(=O)=O)n1` [Example I-124, 4-{4-[(1R,2R)-2-(methanesulphonyl-methyl-amino)-cyclopentylamino]-5-trifluoromethyl-pyrimidin-2-ylamino}-3-methoxy-N-(1-methyl-piperidin-4-yl)-benzamide], the results for the IC50 (on PTK2 enzyme [3]; in test [1]) were 0.81 nM and 241 nM, respectively.

As for `COc1cc(NC(C)=O)ccc1Nc1ncc(C(F)(F)F)c(N[C@@H]2CCCC[C@H]2N(C)S(C)(=O)=O)n1` [Example I-165], the results for the IC50 (on PTK2 enzyme [3]; in test [1]) were 4 nM and 167 nM, respectively.

Turning to `COc1cc(C(=O)NC2CCN(C)CC2)ccc1Nc1ncc(C(F)(F)F)c(N[C@@H]2CCC[C@H]2NS(C)(=O)=O)n1` [Example I-126, 4-[4-((1R,2R)-2-methanesulphonylamino-cyclopentylamino)-5-trifluoromethyl-pyrimidin-2-ylamino]-3-methoxy-N-(1-methyl-piperidin-4-yl)-benzamide], the figures for the IC50 (against PTK2 enzyme [3]; in test [1]) were 0.9 nM and 265 nM, respectively.

Consider `COc1cc(C(=O)NC2CCN(C)CC2)c(C)cc1Nc1ncc(C(F)(F)F)c(N[C@@H]2CCCC[C@H]2N(C)S(C)(=O)=O)n1` [Example I-93], for which the IC50 turned out to be 0.86 nM on PTK2 enzyme [3] and 4040 nM in test [1].

As for `COCCNC(=O)c1cc(OC)c(Nc2ncc(C(F)(F)F)c(N[C@@H]3CCCC[C@H]3N(C)S(C)(=O)=O)n2)cc1C` [Example I-133], the results for the IC50 (against PTK2 enzyme [3]; in test [1]) were 0.91 nM and 2190 nM, respectively.

Consider `COc1cc(C(=O)NC2CCN(C)CC2)ccc1Nc1ncc(C(F)(F)F)c(N[C@@H]2CCCC[C@H]2NS(C)(=O)=O)n1` [Example I-125, 4-[4-((1R,2R)-2-methanesulphonylamino-cyclohexylamino)-5-trifluoromethyl-pyrimidin-2-ylamino]-3-methoxy-N-(1-methyl-piperidin-4-yl)-benzamide], for which the IC50 against PTK2 enzyme [3] was 0.93 nM; in test [1], 257 nM.

For the molecule `COc1cc(C(=O)NC2CCN(C)CC2)ccc1Nc1ncc(C(F)(F)F)c(N[C@@H]2CCCC[C@H]2N(C)S(C)(=O)=O)n1` [Example I-90, 4-{4-[(1R,2R)-2-(methanesulphonyl-methyl-amino)-cyclohexylamino]-5-trifluoromethyl-pyrimidin-2-ylamino}-3-methoxy-N-(1-methyl-piperidin-4-yl)-benzamide], the IC50 against PTK2 enzyme [3] came out at 0.8 nM; in test [1], 280 nM.

As for `COc1cc(C(=O)NC2CCN(C)CC2)c(C)cc1Nc1ncc(Cl)c(N[C@@H]2CCCC[C@H]2N(C)S(C)(=O)=O)n1` [Example I-164], the IC50 against PTK2 enzyme [3] was determined as 1 nM; in test [1] it was 3360 nM.

In the case of `COc1cc(CN2CCN(C)CC2)ccc1Nc1ncc(C(F)(F)F)c(N[C@@H]2CCCC[C@H]2N(C)S(C)(=O)=O)n1` [Example I-148], the IC50 against PTK2 enzyme [3] worked out at 0.95 nM; in test [1], 707 nM.

In the case of `COc1cc(CN(C)C)ccc1Nc1ncc(C(F)(F)F)c(N[C@@H]2CCCC[C@H]2N(C)S(C)(=O)=O)n1` [Example I-147], the figures for the IC50 (against PTK2 enzyme [3]; in test [1]) were 0.9 nM and 332 nM, respectively.

For the molecule `CCN([C@@H]1CCCC[C@H]1Nc1nc(Nc2ccc(C(=O)NC3CCN(C)CC3)cc2OC)ncc1C(F)(F)F)S(C)(=O)=O` [Example I-91], the IC50 on PTK2 enzyme [3] is 1 nM; in test [1], 264 nM.

These data come from patent US20110071158A1, “NEW COMPOUNDS” (BOEHRINGER INGELHEIM INTERNATIONAL GMBH, priority 2009, published 2011).
